Source: patent US20220072036A1, “METHOD FOR INHIBITING CORONAVIRUS AND METHOD FOR TREATING DISEASE ASSOCIATED WITH CORONAVIRUS INFECTION” (AMAZING FORTUNE CO., LTD., priority 2020, published 2022)

Key:
[1] = biological target: SARS-CoV-2 papain-like protease (PLPro) (Severe acute respiratory syndrome coronavirus 2, UniProt P0DTD1); type: biochemical; conditions: SARS-CoV2 PLPro 0.9 μM, 30 min preincubation, FG6-pNA substrate, 30° C., 300 seconds; inhibitor concentrations per Table 1; mean±standard deviation
[2] = system: CC(C)C[C@H](NC(=O)[C@H](CCCNC(=N)N)NC(=O)[C@@H](N)Cc1ccccc1)C(=O)N[C@@H](CCCCN)C(=O)NCC(=O)NCC(=O)Nc1ccc([N+](=O)[O-])cc1; experiment: purified protein, by the assay type; conditions: pH 7.4; 30.0 °C

Work on `[Mg+2]` [Comparative Group 2] yielded an Inhibition percentage [1] of 13.99 ± 0.11%.

`[Zn+2]` [Comparative Group 3] gave an Inhibition percentage [1] of 19.83 ± 0.88%.

In the case of “SARS-CoV-2 PLpro (Severe acute respiratory syndrome coronavirus 2)”, the Km [2] is reported as 2500 ± 30 µM and the kcat [2] is reported as 0.85 ± 0.01 s⁻¹.
